From article PMC4526890, “Crystal structures of Mycobacterium tuberculosis GlgE and complexes with non-covalent inhibitors” (Scientific Reports, 2015) come the findings set out here.

Structures are written as SMILES.

The target in this experiment is T1, Mtb GlgE (Mycobacterium tuberculosis, UniProt P9WQ17).
T1 construct: full-length wild type, N-terminal His tag (modified pET-28), E. coli T7 Rosetta; homodimer, intermolecular C29 disulfide in crystal
Kind of experiment: X-ray crystal structure, […] Å, crystal soak. Format: binding. As to conditions: 10 mM ligand, 1 h soak of maltose co-crystal; acceptor glucan site about 26 Å from M1P site; ternary complex with maltose.

T1 sequence (P9WQ17 1-700): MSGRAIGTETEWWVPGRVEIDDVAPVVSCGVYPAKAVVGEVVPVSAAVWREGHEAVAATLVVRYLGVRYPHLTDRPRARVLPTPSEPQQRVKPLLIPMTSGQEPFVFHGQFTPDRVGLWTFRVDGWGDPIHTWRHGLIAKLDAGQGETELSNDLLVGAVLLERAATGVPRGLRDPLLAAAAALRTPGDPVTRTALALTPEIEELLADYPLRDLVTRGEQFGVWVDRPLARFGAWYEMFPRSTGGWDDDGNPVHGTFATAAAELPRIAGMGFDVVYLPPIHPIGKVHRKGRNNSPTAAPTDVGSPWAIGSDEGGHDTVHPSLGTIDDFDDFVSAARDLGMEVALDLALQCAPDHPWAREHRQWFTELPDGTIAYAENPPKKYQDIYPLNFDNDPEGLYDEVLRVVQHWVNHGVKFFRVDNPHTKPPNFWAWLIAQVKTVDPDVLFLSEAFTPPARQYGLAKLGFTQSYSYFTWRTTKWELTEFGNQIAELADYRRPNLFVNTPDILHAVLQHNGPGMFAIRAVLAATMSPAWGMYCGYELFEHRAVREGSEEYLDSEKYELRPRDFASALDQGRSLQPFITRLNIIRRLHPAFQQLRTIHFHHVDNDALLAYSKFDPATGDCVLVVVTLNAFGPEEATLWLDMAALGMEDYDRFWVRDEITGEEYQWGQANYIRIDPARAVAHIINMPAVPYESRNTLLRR

For the compound `OC[C@H]1O[C@H](O[C@H]2[C@H](O)[C@@H](O)[C@@H](O[C@H]3[C@H](O)[C@@H](O)[C@@H](O[C@H]4[C@H](O)[C@@H](O)[C@@H](O[C@H]5[C@H](O)[C@@H](O)[C@@H](O[C@H]6[C@H](O)[C@@H](O)C(O)O[C@@H]6CO)O[C@@H]5CO)O[C@@H]4CO)O[C@@H]3CO)O[C@@H]2CO)[C@H](O)[C@@H](O)[C@@H]1O` (stereo partly shown) [M6, maltohexaose], the “X-ray crystal structure, 4.0 Å, crystal soak” value was “ternary complex with Mtb GlgE bound to maltose and maltohexaose (GlgE-M6) was solved”.
